Values quoted from earlier work in patent publication US4610817A, “N-acyl derivatives of peptides, their preparation and their use in the treatment of disorders, and agents for this purpose” (BASF Aktiengesellschaft, priority 1983, dated 1986).
Where a SMILES comes first, the peptide text is derived from it.

Tested on: tremor, rigor and akinesia in Parkinson patients
Settings: alone or in combination with L-dopa

CC(C)C[C@H](NC(=O)[C@@H]1CCCN1)C(=O)NCC(N)=O [MIF, L-Pro-L-Leu-Gly-NH2] (H-Pro-Leu-Gly-NH2)
clinical effect on Parkinson symptoms: advantageous effect on tremor, rigor and akinesia
